Holding throughout (assay type): cell-based
The subject of assay [1] is several mammalian cancer cell lines. Description: In vitro antitumor activity by culturing tumor cells (overall statement). The conditions noted are these: mouse lymphoma, human NSC lung carcinoma, human melanoma, human colon carcinoma. An excerpt: (§1) Its antitumor activity has been detected in vitro by culturing the tumor cells following the methodology described by Bergeron et al. ^16, and by Schroeder et al ^16. Activity against different tumors as mouse lymphoma, human NSC lung carcinoma, human melanoma and human colon carcinoma has been observed.

Assay [2] deals with P-388 (ATCC CCL-46, suspension culture of a lymphoid neoplasm from DBA/2 mouse). Nature of the assay: Cytotoxicity against P-388 cells, approximate IC50 from growth versus control wells. Conditions: P388, 72 h, three days of incubation. How it is done:
as §1
(§2) Biological activity: Cells were maintained in logarithmic phase of growth in Eagle's Minimum Essential Medium, with Earle's Balanced Salts, with 2.0 mM L-glutamine, with non-essential amino acids, without sodium bicarbonate (EMEM/neaa); suplemented with 10% Fetal Calf Serum (FCS), 10^−2 M sodium bicarbonate and 0,1 g/l penicillin-G+ streptomycin sulfate.
(§3) The tumor cell lines employed have been P-388 (ATCC CCL-46, suspension culture of a lymphoid neoplasm from DBA/2 mouse), A-549 (ATCC CCL-185, monolayer culture of a human lung carcinoma), HT-29 (ATCC HTB-38, monolayer culture of a human colon carcinoma) and MEL-28 (ATCC […], monolayer culture of a human melanoma).
P-388 cells were seeded into 16 mm wells at 1×10^4 cells per well in 1 ml aliquots of MEM 5FCS containing the indicated concentration of drug. A separate set of cultures without drug was seeded as control growth to ensure that cells remained in exponential phase of growth. All determinations were carried out in duplicate. After three days of incubation at 37° C., 10% CO2 in a 98% humide atmosphere, an aproximate IC50 was determined by comparing the growth in wells with drug to the growth in wells control.
(§4) In Table I are presented the cytotoxicity expressed as IC50 in μg/ml and μM

Assay [3] has as its system MEL-28 (ATCC HTB-38, monolayer culture of a human melanoma). Description: Cytotoxicity against MEL-28 cells, crystal violet staining, approximate IC50. Conditions: SK-MEL-28, 72 h, three days of incubation. How it is done: as §1, §2, §3
(§5) A-549, HT-29 and MEL-28 were seeded into 16 mm wells at 2×10^4 cells per well in 1 ml aliquots of MEM 10FCS containing the indicated concentration of drug. A separate set of cultures without drug was seeded as control growth to ensure that cells remained in exponential phase of growth. All determinations were carried out in duplicate. After three days of incubation at 37° C., 10% CO2 in a 98% humide atmosphere, the wells were stained with 0.1% Crystal Violet. An aproximate IC50 was determined by comparing the growth in wells with drug to the growth in wells control.
as §4

Assay [4] concerns A-549 (ATCC CCL-185, monolayer culture of a human lung carcinoma). Nature of the assay: Cytotoxicity against A-549 cells, crystal violet staining, approximate IC50. Conditions: A549, 72 h, three days of incubation. How it is done:
as §1, §2, §3, §5, §4

Assay [5] concerns HT-29 (ATCC HTB-38, monolayer culture of a human colon carcinoma). Description: Cytotoxicity against HT-29 cells, crystal violet staining, approximate IC50. The conditions noted are these: HT-29, 72 h, three days of incubation. How it is done:
as §1, §2, §3, §5, §4

Consider `Cc1cc(=O)[nH]c2c1-c1nc3ccccc3c3ccnc(c13)C2=O` [IB-96213, 12-Methyl-9H-benzo[b]pyrido[4,3,2-d,e](1,7)phenantroline-8,10-dione], for which the “antitumor activity against several mammalian cancer cell lines” value in assay [1] is on record as “good antitumor activity”. Also, the half-maximal inhibitory concentration (IC50) in assay [2] (duplicate) was 0.1 µg/mL; in assay [2] (value in brackets), 320 nM; in assay [3] (duplicate) it was 0.001 µg/mL; in assay [3] (value in brackets) it was 3 nM; in assay [4] (duplicate), 0.001 µg/mL; in assay [4] (value in brackets) it was 3 nM. Moreover, the concentration for half-maximal inhibition (IC50) in assay [5] (duplicate) is 1 µg/mL; in assay [5] (value in brackets), 3180 nM.
Regarding `O=C1c2c(O)ccnc2-c2nc3ccccc3c3ccnc1c23` [IB-98205, 9-hydroxybenzo[b]pyrido[4,3,2-d,e](1,10)phenantrolin-8-one], the “antitumor activity against several mammalian cancer cell lines” value in assay [1] is reported as “good antitumor activity”. For the same compound, the IC50 in assay [2] (duplicate) was found to be 1.25 µg/mL; in assay [2] (value in brackets), 4180 nM; in assay [3] (duplicate), 0.05 µg/mL; in assay [3] (value in brackets) it was 170 nM; in assay [4] (duplicate), 0.012 µg/mL; in assay [4] (value in brackets) it was 40 nM. Further, the results for the IC50 in assay [5] (duplicate) and in assay [5] (value in brackets) were 0.12 µg/mL and 400 nM, respectively.

A word on the IC50: it is the concentration needed to halve the response being measured. A high value points to a need for much substance.
